Data: PubChem BioAssay (NCI)
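Assay format: 96-well plates, 48-hour exposure. TGI denotes the concentration required for complete inhibition of growth.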

What follows are molecules tested on HCT-116 colon (assay: growth of human tumour cells (NCI), 48 h).
CCN(CC)c1cc2c3c(c1)CCCN3CCC2 was tested, and the TGI was over 10 µM. With CC(=O)O[C@H]1CC[C@H]2[C@@H]3CCC4C(C)=NNC(=O)C4[C@H]3CC[C@]12C (some centres not stated) the TGI was over 100 µM. For O=c1[nH]c(C23CC4CC(CC(C4)C2)C3)cc2c1c(=O)oc1ccccc12, the TGI was 12.4 µM. CC1=NN(C(=O)CC(=O)Nc2ccc(C)cc2)C(=O)C1N=Nc1ccc(C(=O)O)cc1 (configuration not stated) showed a TGI of over 100 µM. With O=C1C(=O)c2c(oc(=O)c3ccccc23)-c2ccccc21 the TGI was over 25 µM. Molecule CCOC(=O)C(C(=O)OCC)=C1NC2(c3ccccc3Nc3ccc(C)cc32)C(C#N)S1 (configuration not stated) has a TGI of 22 µM. CN1CCC2(CC1)SC[C@H]1C(=O)N(c3ccc(Cl)cc3)C(=O)N12 showed a TGI of over 100 µM. For CC(C)=CCC[C@@H](C)C1=C(O)C(O)C(C)=C2N=C(c3ccccc3)C(=O)OC21 (some centres not stated), the TGI was over 8.46 µM. CC(C)(C)[Si](C)(C)O[C@@H](C(=O)OC1C=CCCC1)[C@@H](NC(=O)c1ccccc1)c1ccccc1 (some centres not stated) showed a TGI of over 100 µM. Work on O=C(Nc1cccc2ccccc12)Nn1cnnc1 yielded a TGI of over 100 µM. CCOC(=O)C1=CN/C(=C(/C)C(=O)OC)SC1C(=O)OCC (configuration not stated) was tested, and the TGI was over 100 µM. Molecule Cc1ccc2c(c1)C(=O)/C(=N/Nc1ccc(Cl)cc1)CCO2 has a TGI of over 100 µM. In the case of COc1cc(C2SCC(=O)N2c2ccccc2Cl)cc(OC)c1OC (configuration not stated), the TGI is reported as over 100 µM. In the case of C=C1C(=O)OC2/C=C(\CO)C3OC3C3OC3(C)CC(OC(=O)/C(=C/C)CO)C12 (configuration not stated), the TGI is reported as over 100 µM. In the case of COc1ccc2cc(CNCCCCCCCCCCCCNCc3ccc4cc(OC)ccc4c3)ccc2c1, the TGI is reported as 32.8 µM. For COc1cc(S(=O)(=O)Nc2nc(-c3ccc(N4C(=O)CSC4c4cccs4)cc3)cs2)ccc1Cl (configuration not stated), the TGI was over 100 µM. Work on COc1cc(S(=O)(=O)Nc2nc(-c3ccc(N4C(=O)C(CC(=O)O)SC4c4ccccc4O)cc3)cs2)ccc1Cl (configuration not stated) yielded a TGI of over 100 µM. Molecule N#C/C(=C\c1cn(Cc2ccccc2)c2ccccc12)c1nn(-c2ccccc2)c(N)c1C#N has a TGI of over 100 µM. For COCC(N=CN1CCCc2ccccc2[C@@H]1CCCCl)C(C)(C)C (some centres not stated), the TGI was 9.48 µM. For CNc1c2cccc(C)c2nc2c(C(=O)NCCN(C)C)cccc12, the TGI was 0.453 µM. In the case of O=C1CC(NC(=O)C(F)(F)F)c2c1csc2Br (configuration not stated), the TGI is reported as over 100 µM. C[C@]12C[C@H](c3ccccc3)Nc3ccccc3N1C(c1ccccc1)=NO2 gave a TGI of over 100 µM. In the case of CC[C@](O)(CC(=O)O[C@H]1C(=O)O[C@@H]2C[C@H]3C(C)=CC(=O)[C@@H](O)[C@]3(C)[C@H]3[C@@]4(O)OC[C@]32[C@@H]1[C@@H](C)[C@H]4O)C(C)C, the TGI is reported as under 0.01 µM. With O=C1CC(=O)NC(=NN2C(=O)/C(=C/C(=O)c3ccco3)N=C2c2ccccc2)N1 the TGI was over 100 µM.

The molecules below were run on LOX IMVI melanoma (assay: growth of human tumour cells (NCI), 48 h).
In the case of COc1ccc2cc(Oc3ccc(Cl)cc3)c(=O)oc2c1, the TGI is reported as over 100 µM. CCN(CC)c1cc2c3c(c1)CCCN3CCC2 was tested, and the TGI was over 10 µM. CC(=O)O[C@H]1CC[C@H]2[C@@H]3CCC4C(C)=NNC(=O)C4[C@H]3CC[C@]12C (some centres not stated) was tested, and the TGI was over 75.4 µM. For O=c1[nH]c(C23CC4CC(CC(C4)C2)C3)cc2c1c(=O)oc1ccccc12, the TGI was 11.6 µM. CC1=NN(C(=O)CC(=O)Nc2ccc(C)cc2)C(=O)C1N=Nc1ccc(C(=O)O)cc1 (configuration not stated) gave a TGI of over 100 µM. In the case of O=C1C(=O)c2c(oc(=O)c3ccccc23)-c2ccccc21, the TGI is reported as over 25 µM. Work on CCOC(=O)C(C(=O)OCC)=C1NC2(c3ccccc3Nc3ccc(C)cc32)C(C#N)S1 (configuration not stated) yielded a TGI of 24.4 µM. With CN1CCC2(CC1)SC[C@H]1C(=O)N(c3ccc(Cl)cc3)C(=O)N12 the TGI was over 100 µM. Work on CC(C)=CCC[C@@H](C)C1=C(O)C(O)C(C)=C2N=C(c3ccccc3)C(=O)OC21 (some centres not stated) yielded a TGI of over 25 µM. For CC(C)(C)[Si](C)(C)O[C@@H](C(=O)OC1C=CCCC1)[C@@H](NC(=O)c1ccccc1)c1ccccc1 (some centres not stated), the TGI was 41.2 µM. Molecule O=C(Nc1cccc2ccccc12)Nn1cnnc1 has a TGI of over 100 µM. In the case of Cc1oc2c(c1C)S(=O)(=O)C(C#N)=C(c1ccccc1)N2, the TGI is reported as over 100 µM. CCOC(=O)C1=CN/C(=C(/C)C(=O)OC)SC1C(=O)OCC (configuration not stated) was tested, and the TGI was over 100 µM. Work on Cc1ccc2c(c1)C(=O)/C(=N/Nc1ccc(Cl)cc1)CCO2 yielded a TGI of over 100 µM. Molecule COc1cc(C2SCC(=O)N2c2ccccc2Cl)cc(OC)c1OC (configuration not stated) has a TGI of over 100 µM. C=C1C(=O)OC2/C=C(\CO)C3OC3C3OC3(C)CC(OC(=O)/C(=C/C)CO)C12 (configuration not stated) showed a TGI of over 100 µM. Work on COc1ccc2cc(CNCCCCCCCCCCCCNCc3ccc4cc(OC)ccc4c3)ccc2c1 yielded a TGI of 28.2 µM. Molecule COc1cc(S(=O)(=O)Nc2nc(-c3ccc(N4C(=O)CSC4c4cccs4)cc3)cs2)ccc1Cl (configuration not stated) has a TGI of 48.2 µM. In the case of COc1cc(S(=O)(=O)Nc2nc(-c3ccc(N4C(=O)C(CC(=O)O)SC4c4ccccc4O)cc3)cs2)ccc1Cl (configuration not stated), the TGI is reported as over 100 µM. Work on N#C/C(=C\c1cn(Cc2ccccc2)c2ccccc12)c1nn(-c2ccccc2)c(N)c1C#N yielded a TGI of over 100 µM. COCC(N=CN1CCCc2ccccc2[C@@H]1CCCCl)C(C)(C)C (some centres not stated) was tested, and the TGI was 24.2 µM. CNc1c2cccc(C)c2nc2c(C(=O)NCCN(C)C)cccc12 showed a TGI of 0.391 µM. For O=C1CC(NC(=O)C(F)(F)F)c2c1csc2Br (configuration not stated), the TGI was over 100 µM. In the case of CC[C@](O)(CC(=O)O[C@H]1C(=O)O[C@@H]2C[C@H]3C(C)=CC(=O)[C@@H](O)[C@]3(C)[C@H]3[C@@]4(O)OC[C@]32[C@@H]1[C@@H](C)[C@H]4O)C(C)C, the TGI is reported as under 0.01 µM.

What follows are molecules tested on MDA-N (assay: growth of human tumour cells (NCI), 48 h).
COc1ccc2cc(Oc3ccc(Cl)cc3)c(=O)oc2c1 gave a TGI of over 100 µM. CCN(CC)c1cc2c3c(c1)CCCN3CCC2 was tested, and the TGI was over 10 µM. CC(=O)O[C@H]1CC[C@H]2[C@@H]3CCC4C(C)=NNC(=O)C4[C@H]3CC[C@]12C (some centres not stated) was tested, and the TGI was over 100 µM. With O=c1[nH]c(C23CC4CC(CC(C4)C2)C3)cc2c1c(=O)oc1ccccc12 the TGI was over 59.3 µM. Work on CC1=NN(C(=O)CC(=O)Nc2ccc(C)cc2)C(=O)C1N=Nc1ccc(C(=O)O)cc1 (configuration not stated) yielded a TGI of over 100 µM. O=C1C(=O)c2c(oc(=O)c3ccccc23)-c2ccccc21 showed a TGI of over 25 µM. CCOC(=O)C(C(=O)OCC)=C1NC2(c3ccccc3Nc3ccc(C)cc32)C(C#N)S1 (configuration not stated) showed a TGI of 46.3 µM. For CN1CCC2(CC1)SC[C@H]1C(=O)N(c3ccc(Cl)cc3)C(=O)N12, the TGI was over 100 µM. In the case of CC(C)=CCC[C@@H](C)C1=C(O)C(O)C(C)=C2N=C(c3ccccc3)C(=O)OC21 (some centres not stated), the TGI is reported as over 25 µM.
